The target in one assay is T1, rat FAAH (Rattus norvegicus, UniProt P97612).
T1 construct: expressed in transfected cells; host or cells: HeLa
T1 sequence (P97612 1-579): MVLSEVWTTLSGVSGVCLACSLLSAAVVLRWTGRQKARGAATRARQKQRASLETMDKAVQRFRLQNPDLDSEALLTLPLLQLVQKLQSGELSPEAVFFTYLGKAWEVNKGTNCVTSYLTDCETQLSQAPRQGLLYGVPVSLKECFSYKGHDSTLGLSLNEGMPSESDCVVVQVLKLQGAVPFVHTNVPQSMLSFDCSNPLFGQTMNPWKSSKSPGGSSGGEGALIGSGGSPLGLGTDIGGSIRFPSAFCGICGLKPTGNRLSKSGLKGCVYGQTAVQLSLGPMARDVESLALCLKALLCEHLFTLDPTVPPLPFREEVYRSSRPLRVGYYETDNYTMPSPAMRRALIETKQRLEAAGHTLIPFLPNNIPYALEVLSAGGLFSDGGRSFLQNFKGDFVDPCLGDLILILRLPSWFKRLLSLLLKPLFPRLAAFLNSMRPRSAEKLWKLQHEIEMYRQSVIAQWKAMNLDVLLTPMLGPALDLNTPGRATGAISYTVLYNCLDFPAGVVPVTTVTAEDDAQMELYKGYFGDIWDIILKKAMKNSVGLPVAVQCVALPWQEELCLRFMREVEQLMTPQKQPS
Kind of assay: FAAH enzyme assay, hydrolysis of [14C]AEA in HeLa homogenates. Format: biochemical. As to conditions: FAAH-transfected HeLa homogenates.

The test system of a further assay is wild-type HeLa cells. In words: AEA uptake in wild-type HeLa cells. The assay is classed as cell-based. Here is the method: AEA uptake assays in wild-type and FABP5 knockdown HeLa cells were performed exactly as described (Kaczocha, M. et al. 2012).
The next assay relates to male C57Bl6 mice. In words: Carrageenan-induced paw edema and thermal hyperalgesia. The assay is classed as in vivo. Here is the method:
We used male C57Bl6 mice (22-30 g, Taconic Farms) for all experiments. The animals were group housed at room temperature and kept on a 12:12 hour light:dark cycle with ad libitum access to water and food. The animals were habituated to the experimental room for one week before testing. All experiments were approved by the Stony Brook University Institutional Animal Care and Use Committee. The experimenter was blinded to the treatment conditions of each animal.
Paw edema was induced by injecting 1% λ-carrageenan (20 μl, in sterile saline) into the plantar surface of the left hind paw and a control solution of saline into the right hind paw using a 27 gauge needle. Paw diameters were measured before carrageenan injection and 4 hours after injection using digital electronic calipers (Fisher) and expressed to the nearest ±0.01 mm. […] The cannabinoid receptor antagonists, rimonabant and SR144528 (3 mg/kg, i.p.), in ethanol:emulphor:saline (1:1:18), were injected 15 min before the FABP inhibitor. Edema is reported as the change in paw diameter at 4 hr over the baseline. Changes in paw diameter of saline-injected contralateral paws were negligible. Thermal hyperalgesia measured the latency to withdraw the paw from a focused beam of radiant heat applied to the plantar surface of the hind paw using a Hargreaves plantar apparatus (Ugo Basile) set at an intensity of 3.0. For each mouse, the average latencies consisted of three trials spaced at least 5 minutes apart. The mice were habituated to the test chamber for 30 min. The cutoff time was set at 30 sec.
Behavioral data are presented as means±S.E.M. for the vehicle and inhibitor-treated groups, each consisting of at least 6 animals. Statistical significance between vehicle and inhibitor groups was determined using unpaired t-tests or one-way ANOVA followed by Dunnett's post hoc analysis. In all cases, differences of p<0.05 were considered significant.
In general terms: Carrageenan injected into the paw causes an acute inflammation.

Here are results for one compound from patent publication US11026910B2, “α- and γ-truxillic acid derivatives and pharmaceutical compositions thereof” (The Research Foundation for The State University of New York, priority 2012, dated 2021).

Entries after “also recorded” stand apart in the source; their conditions may differ.

For `O=C(O)[C@H]1[C@@H](c2ccccc2)[C@@H](C(=O)Oc2cccc3ccccc23)[C@@H]1c1ccccc1` (single isomer, unassigned) [Compound 26, α-2,4-diphenyl-cyclobutane-1,3-dicarboxylic Acid mono-(1-naphthol) Ester], at rat FAAH, the “inhibition of FAAH (AEA hydrolysis)” value is on record as “does not inhibit”. In addition, the “cellular AEA uptake / accumulation” value with wild-type HeLa cells is given as “significantly inhibited; also recorded: inhibits”. Further, in the assay with male C57Bl6 mice (20 mg/kg i.p., antagonists 3 mg/kg i.p. 15 min before), the “antinociceptive and anti-edematous effects after rimonabant and SR144528 pretreatment” value is reported as “completely reversed; also recorded: blocked”. Also, in the assay on male C57Bl6 mice (20 mg/kg, i.p. (FIG. 16A)), the “carrageenan-induced paw edema, 24 hrs after inhibitor administration” value is on record as “reduced” and the “carrageenan-induced thermal hyperalgesia, 24 hrs after inhibitor administration” value is on record as “reduced”. Also, the carrageenan-induced thermal hyperalgesia entry in the assay with male C57Bl6 mice (20 mg/kg, i.p., 45 min prior to carrageenan (FIG. 10B)) is “significantly reduced; also recorded: alleviates”. Further, in the assay on male C57Bl6 mice (20 mg/kg, i.p., paw diameter at 4 hr (FIG. 10C)), the carrageenan-induced paw edema result is “significantly reduced; also recorded: reduces”.
